Tested on: biofilms
Test: Biofilm formation on HAP discs pre-treated with a simple solution of lysine
Format: cell-based
Details: after 48 h, visual
Text: We pre-treated HAP discs with a simple solution of lysine to see how an overabundance of free lysine would affect biofilm formation.

NCCCC[C@H](N)C(=O)O [lysine]
appearance of biofilms after lysine pre-treatment: visually were overgrown
